Patent US12529108B2, “Compositions, methods and kits for characterizing and screening for small cell ovarian carcinoma” (THE TRANSLATIONAL GENOMICS RESEARCH INSTITUTE, priority 2014, dated 2026)
pIC50: −log10 of the molar value.

Key:
SMARCA2 protein = SMARCA2 protein level by Western blotting after HDAC inhibitor treatment; type: cell-based, human; details: BIN67 and SCCOHT1 cells; Western blotting (FIG. 18B)
From the text: FIGS. 18A-18D depict characterization of SMARCA4/A2 expression in SCCOHT cell lines. […] FIGS. 18C and 18D show Lentivirus-based re-expression of SMARCA4/A2 in BIN67 cells inhibits cell growth.
To understand the roles of these two mutually exclusive ATPases in SCCOHT etiology, we will elucidate the epigenetic consequences of re-expression of one or both SWI/SNF complex ATPases in SCCOHTs.

BIN67 = assay: Pilot compound screen (LOPAC and Prestwick libraries), cell viability (CellTiter Glo); type: cell-based, human; details: 5 μM and 10 μM; viability at 72 hours post-treatment; shared hits from HepG2 counterscreen filtered out
From the text: The BIN67 cell line has been characterized for optimal growth conditions, doubling time, cell seeding density, FBS concentration, siRNA transfection conditions (transfection reagent and lipid-to-siRNA ratio to achieve transfection efficiency of 95% or higher), and DMSO tolerance. We have also banked large numbers of BIN67 cells from the same passage to facilitate future screening. Furthermore, we have performed pilot compound and RNAi screens on this cell line.
In BIN67 we screened the LOPAC and Prestwick chemical libraries, diverse libraries of small molecules with good bioavailability and toxicity profiles. These libraries contain 2,400 drugs with subsets of FDA-approved drugs and pharmacologically active compounds. We completed 2 runs in BIN67 with duplicates at concentrations of 5 μM and 10 μM and measured cell viability at 72 hours post-treatment with CellTiter Glo (Promega). The high quality screen was exceeded NIH standards with covariance <5% and Z′-factor 0.83-0.91. […] Notable classes of lead compounds enriched in these hits included 9 cardiac glycosides, 6 tubulin polymerization inhibitors, 2 topoisomerase II inhibitors, and 2 Src/FGFR family kinase inhibitors. In particular, the tubulin inhibitors vincristine and […] are currently used clinically for SCCOHT patients. This serves as a positive confirmation for the robustness and reliability of our screen.

[1] = test system: SMARCA4/A2 negative SCCOHT cell lines BIN67 and SCCOHT1; assay: High-throughput screen of epigenetic agents, cell viability (CellTiter Glo); type: cell-based, human; details: 3-fold 20-point dilution series, viability 3 days after treatment (FIG. 21)
Method: FIG. 21 depicts SCCOHT sensitivity to epigenetic agents. Cells plated at 1,000 cells/well in a 384-well plate were treated with indicated agents using a serial 3-fold 20-point dilution series. Cell viability was measured 3 days after treatment using CellTiter Glo. Surviving cells were measured and normalized to DMSO-treated cells and IC50s calculated by curve-fitting.
Thus, as in MRTs, targeting epigenetic modifications may have therapeutic potential in SCCOHT. To evaluate the activity of a panel of epigenetic drugs in SCCOHT we performed high-throughput screening in the SMARCA4/A2 negative SCCOHT cell lines BIN67 and SCCOHT1. Effects of epigenetic modifiers from all main classes of epigenetic agents—modifiers of acetylated histones as well as inhibitors of DNA methylation, histone methyltransferases and HDACs—are shown in FIG. 21. BIN67 and SCCOHT1 cells are […] sensitive to many of these agents. […] We have found HDAC2 to be overexpressed in most SCCOHTs including these cell lines.

SCCOHT cell lines = assay: FGFR compounds profiling in a drug dose-dependent manner, cell viability; type: cell-based; details: Homo sapiens; both SCCOHT cell lines (FIG. 22B)
Method: FIGS. 22A and 22B show the characterization of FGFR and MERTK inhibition in BIN67 cell line. […] Four unique sequences per target were tested; GFP sequence is used as a negative scramble control. Cell viability was measured using CellTiter Glo.
Our finding of FGFRs as synthetic lethal targets, in both our HT-RNAi and compound pilot screens, in SCCOHT is novel. […] As we also identified FGFR inhibitors in our pilot compound screen, we further tested 8 FGFR inhibitors in vitro.

Question: Which “upregulation of SMARCA2 protein” value (SMARCA2 protein) does the source give for `CC(/C=C/C(=O)NO)=C\[C@@H](C)C(=O)c1ccc(N(C)C)cc1` [trichostatin A] here?
Answer: dose-dependent upregulation

Question: `COc1cc([C@@H]2c3cc4c(cc3[C@@H](O[C@@H]3O[C@@H]5CO[C@@H](C)O[C@H]5[C@H](O)[C@H]3O)[C@H]3COC(=O)[C@H]23)OCO4)cc(OC)c1O` [etoposide] was tested. Which “hypersensitivity (screen hit) of BIN67” value (BIN67) did it give?
Answer: hypersensitivity

Question: How did the “hypersensitivity (screen hit) of BIN67” value (BIN67) turn out when `CC[C@]1(O)C[C@H]2CN(CCc3c([nH]c4ccccc34)[C@@](C(=O)OC)(c3cc4c(cc3OC)N(C=O)[C@H]3[C@@](O)(C(=O)OC)[C@H](OC(C)=O)[C@]5(CC)C=CCN6CC[C@]43[C@@H]65)C2)C1` [vincristine] was run?
Answer: hypersensitivity

Question: With `C/C=C1\NC(=O)[C@H]2CSSCC/C=C/[C@H](CC(=O)N[C@H](C(C)C)C(=O)N2)OC(=O)[C@H](C(C)C)NC1=O` [Rombidepsin, Romidepsin] as the compound, how does the “sensitivity of SCCOHT cells to epigenetic agents” value [1] read?
Answer: most sensitive

Question: How did the pIC50 (SCCOHT cell lines) turn out when `Cc1ccc(C(=O)Nc2ccc(CN3CCN(C)CC3)c(C(F)(F)F)c2)cc1C#Cc1cnc2cccnn12` [ponatinib] was run?
Answer: 6.48 to 8.30
